This assay deals with T1, DENV NS2B-NS3 protease (Dengue virus type 2, UniProt P29990).
T1 construct: plasmid construct CF40-Gly-NS3pro185; made in house; host or cells: E. coli
The assay is described as follows: NS2B-NS3 protease steady-state kinetic inhibition assay (Boc-GRR-AMC substrate, Dynafit global fit). Type of assay: biochemical, DEN2V (dengue virus serotype 2). The following applies: 100 nM NS2B-NS3, cleavage buffer pH 9.5, 25° C., two inhibitor concentrations. On the procedure: The DEN2V protease (plasmid construct CF40-Gly-NS3pro185 (Li et al., The Journal of Biological Chemistry, 280, 28766-28774, 2005)) was expressed in E. coli largely following the previously described protocol (Li et al., The Journal of Biological Chemistry, 280, 28766-28774, 2005), although cell growth was continued for 6 hrs at 25° C. following addition of 0.4 mM IPTG (isopropyl-D-thiogalactopyranoside). Purification was as described previously (Li et al., The Journal of Biological Chemistry, 280, 28766-28774, 2005) using metal affinity chromatography. Purified, concentrated NS2B-NS3pro was stored at −80° C. in cleavage buffer (200 mM Tris pH 9.5, 20% glycerol). The activity of the dengue protease was not impacted by a freeze/thaw cycle (data not shown).
Small molecules identified by virtual screening as potential DEN2V protease inhibitors were tested for inhibition activity using NS2B-NS3 protease steady-state kinetic assays as described previously (Li et al., The Journal of Biological Chemistry, 280, 28766-28774, 2005). Briefly, compounds identified in virtual screening experiments were received from established chemical vendors and tested for solubility at 10 mM in DMSO and upon 100-fold dilution from DMSO into cleavage buffer (i.e., 100 μM final compound concentration in 1% DMSO). […] Sequential 10-fold serial dilutions were used to determine the limits of solubility in cleavage buffer as necessary.
Preliminary single-point inhibition assays (Li et al., The Journal of Biological Chemistry, 280, 28766-28774, 2005) were used to check the inhibition activity of compounds using 100 nM NS2B-NS3 and 100 μM substrate Boc-GRR-AMC in cleavage buffer for 30 minutes at 25° C. Fluorescence measurements (lem=465 nm, lex=380 nm) were performed in duplicate on a Fluorolog FL3-22 spectrofluorometer (Horiba Jobin Yvon) and corrected for compound absorption and emission. […] Two inhibitor concentrations were tested. Fluorescence measurements were recorded at 5 minutes intervals from 0 to 30 minutes; fluorescence intensities were converted to AMC product concentrations using calibration curves established with each compound concentration. Each kinetic study was performed in duplicate, and all experiments were repeated three times to ensure all measured parameters were reproducible in independent experiments. Initial velocities at each substrate concentration were calculated from linear curve fits of AMC production per time. The program Dynafit (Biokin, Watertown, Mass.) (Kuzmic, Anal. Biochem., 237, 260-273, 1996) was used to determine Michalen-Menten inhibition model and kinetic parameters that produced the best global fits to the measured velocity versus substrate kinetic data.
These compounds were advanced to detailed kinetic inhibition assays to determine mechanisms of inhibition and inhibition constants. All experiments were performed using two different inhibitor concentrations and a no inhibitor control. Kinetic parameters and inhibition constants were calculated using a generalized Michaelis-Menten model (FIG. 4) and global fitting to all collected velocity versus substrate concentration data (Table 1). […] Further study will be required to determine whether a particular mechanism of inhibition might be advantageous in regard to efficacy against virus replication and/or delay of escape mutants.

The mark [1] stands for this setting: read-out: Inhibition constant Ki1 (competitive component, binding to enzyme).
Where [2] appears, read: read-out: Inhibition constant Ki2 (binding to enzyme-substrate ES complex).
[3] abbreviates: Inhibition constant Ki1 (competitive component, binding to enzyme).
[4] abbreviates: read-out: Inhibition constant Ki3 (binding to ES2 complex).

SMILES strings stand for the structures. Where two headings read alike, the source gives them in different places.

T1 sequence (P29990 1476-1653): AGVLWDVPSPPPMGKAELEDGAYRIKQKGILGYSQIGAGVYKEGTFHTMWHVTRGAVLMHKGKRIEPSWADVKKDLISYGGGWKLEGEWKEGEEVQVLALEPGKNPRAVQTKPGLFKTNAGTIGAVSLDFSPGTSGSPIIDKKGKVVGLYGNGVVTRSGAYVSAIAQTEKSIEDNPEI

With `O=C1Cc2ccc(F)cc2C[C@@H]1C1=Cc2ccc(F)cc2CC1` [ZINC04321905], the Ki under setting [1] worked out at 85 µM.

Turning to `Cn1c(=O)c2cc3ccccc3nc2c2c(=O)n(-c3ccccc3)c(=O)n(-c3ccccc3)c21` [ZINC01042004], the Ki under setting [2] stood at 28 µM.

Regarding `O=C(Nc1cccc(-c2nnc(Cc3ccc4c(c3)OCO4)o2)c1)Nc1ccc2c(c1)CCC2` [ZINC21359030], under setting [2], the Ki came out at 4 µM.

As for `c1ccc2c(-c3nnc(-c4ccc5nccnc5c4)o3)cccc2c1` [ZINC00156657], the Ki under setting [1] was found to be 95 µM and the Ki under setting [2] was 45 µM.

On to `Cc1ccc(S(=O)(=O)Nc2ccc(Cn3cnc(-c4nc(-c5cccc(C)c5)no4)c3)cc2)cc1` [ZINC32974777], for which the Ki reads like this: under setting [1], 106 µM; under setting [2], 21 µM.

As to `NS(=O)(=O)c1cccc(-c2ccc([C@H]3Nc4ccccc4-c4nc5ccccc5n43)o2)c1` [ZINC01032664], the Ki under setting [2] was 56 µM.

As for `Cc1ccc(-n2ncc3c2CC(C)(C)C[C@@H]3NC(=O)c2cn(C)c3ccccc3c2=O)cc1` [ZINC12702527], the Ki under setting [1] was determined as 288 µM and the Ki under setting [2] worked out at 421 µM.

As for `c1ccc(CSc2nnc3nc4c5ccccc5c5ccccc5c4nn23)cc1` [ZINC03120327], the Ki under setting [3] turned out to be 42 µM and the Ki (Inhibition constant Ki2 (binding to enzyme-substrate ES complex)) worked out at 21 µM.

For `Cc1nn(-c2ccccc2)nc1C(=O)Nc1nnc(Sc2ccnc3cc(Cl)ccc23)s1` [ZINC08647752], the Ki is, setting by setting: under setting [1], 60 µM; under setting [4], 14 µM.

`Cc1ccn2c(=O)cc(COc3cc(NC(=O)Nc4ccc5c(c4)OCCO5)ccc3C)nc2c1` [ZINC33068105]: the Ki runs as follows: under setting [1], 39 µM; under setting [2], 4 µM.

In the case of `O=C(NNC(=NS(=O)(=O)c1ccccc1)NNC(=O)c1cccc(Cl)c1)c1cccc(Cl)c1` [ZINC12339756], the Ki under setting [4] was 64 µM.

As to `O=C1[C@H]2CSC3(C(=O)c4ccccc4C3=O)N2C(=O)[C@H]2CSC3(C(=O)c4ccccc4C3=O)N12` [ZINC03129319], the Ki runs as follows: under setting [3], 92 µM; (Inhibition constant Ki3 (binding to ES2 complex)) 20 µM.

These data come from patent publication US9408813B2, “Small-molecule inhibitors of dengue virus proteases” (THE BOARD OF REGENTS OF THE UNIVERSITY OF TEXAS SYSTEM, priority 2013, dated 2016).
